Experimental data published in patent US6211215A, “Heterocyclic compounds, their production and use” (Takeda Chemical Industries, Ltd., priority 1996, dated 2001).

Experiments:
MDA-MB-453 = test: In vitro inhibition of cell proliferation (1); type: cell-based; conditions: Homo sapiens, 72 h; Breast cancer MDA-MB-453; 3 days; SRB
Experimental: 100 μl (containing 2,000 cells) of a cell suspension of human breast cancer cell line MDA-MB-453 was seeded in each well of the 96-well microtiter plates. The cultures were incubated at 37° C. in a 5% carbon dioxide gas incubator. On the next day, 100 μl of the 2-fold serial dilution of each compound solution was added to each well and the mixtures were cultured for 3 days. The solution containing the compound was removed and the cells were washed with water. To the cells was added a 0.4% (W/V) dye SRB (dissolved in 1% acetic acid) solution to fix and stain the cell protein (Skehan P. et al., Journal of the National Cancer Institute Vol.82, pp.1107-1112, 1990). The dye solution was removed and the fixed and stained cell protein was washed. The protein-bound dye was extracted with 200 μl of 10 mM Tris buffer. The optical density of the extracted dye was determined at the wavelength of 540 nm to estimate the quantity of the cells in terms of the protein quantity. Designating the protein quantity in the control to which no compound solution was added as 100%, the proportion of the residual protein quantity in each treated group was calculated, and IC50, which was concentration of the compound required to inhibit the residual protein quantity to 50% the quantity of the control, was calculated.

[1] = test system: human breast cancer cell line, MDA-MB-453; test: In vivo mammary cancer inhibiting effect (1); parameters: species or system female Balb/C strain athymic nude mice; conditions: for Tumor growth rate (%): oral, tumor volume vs control
Experimental: 5,000,000 cells of human breast cancer cell line, MDA-MB-453, were suspended in a gelmatrix solution. The suspension was subcutaneously implanted at the breast in 7-week-old female Balb/C strain athymic nude mice (Friedman R. et al., Proceedings of the National Academy of Sciences of the U.S.A. Vol. 87, pp.6698-6702, 1990). Twelve days after the implantation, the diameters of tumors were determined. For the experiment were used 5 mice per group with similar tumor size. Compound 8 of the present invention was suspended in a 5% gum arabic solution (physiologicalsaline) and administered orally twice daily in dose of 30 mg/kg body weight for 10 days, or 2 cycle oral administrations consisting of 45 mg/kg body weight twice daily for 3 days and no treatment for 3 days were performed. On the day when the dosing was ended, the diameters of tumors were measured. Tumor volume was calculated by the following formula: volume of tumor=longest diameter×shortest diameter×shortest diameter×1/2. The growth rate of tumors was obtained as the proportion to the volume of tumor in the control animals in which only the gum arabic solution was administered. The body weights of mice administered with Compound 8 of the present invention were measured during the experiment to observe no decrease.

HER2 = HER2 (Homo sapiens, UniProt P04626); test: Inhibition of phosphorylation of receptor tyrosine in human breast cancer cells (1), T-47D, heregulin-stimulated; type: cell-based
Experimental: Human breast cancer cell line T-47D was cultured for 7 days in the medium containing 0.1% bovine fetus albumin instead of serum to deprive the medium of estrogen. On the 7th day, 1,000 μl of the cell suspension (250,000 cells) was seeded in each well of the 24-well plates. The culture were incubated at 37° C. in a 5% carbon dioxide gas incubator. On the next day, 100 μl of the 10-fold serial dilution of each compound solution was added to each well and, 2 hours later, 0.5 μg/ml of heregulin was added to it. After 5 minutes the extract solution was added to it to terminate the reaction, and the protein fraction was extracted. To the extract was added an antibody against the human receptor type oncogene HER2 to precipitate the human receptor type oncogene HER2 protein by the reaction of immunoprecipitation. The precipitate was fractionated by the protein electrophoresis. The protein in the electrophoretic gel was transferred to a nylon filter. The filter was allowed to react with the phosphorylated tyrosine-specific antibody. The reaction product was fluorescence-labeled to expose a photofilm. The intensity of the exposure on the photofilm was quantitated by an image-analyzing apparatus. The proportion of the phosphorylation of HER2 tyrosine in the cells added with a compound solution of each concentration was calculated designating the phosphorylation of HER2 tyrosine in the heregulin-added cells as 100%.

[2] = test system: human prostate cancer cell line, LNCaP; test: In vivo inhibition of prostate cancer (2); parameters: species or system male Balb/C-strain athymic nude mice; conditions: for Tumor growth rate (%): 60 mg/kg/day, oral, 30 mg/kg twice daily for 21 days
Experimental: 5,000,000 cells of human prostate cancer cell line, LNCaP, were suspended in a gelmatrix solution and implanted subcutaneously at the breast in 8-week old male Balb/C-strain athymic nude mice (Friedman R. et al., Proceedings of the National Academy of Sciences of the U.S.A. Vol. 87, pp.6698-6702, 1990). 33 days after the implantation, the diameters of tumors were measured. Five mice per group with similar tumor size were used for the experiment. Compound 8 of the present invention was suspended in a 5% gum arabic solution (physiological saline) and administered orally twice daily in a dose of 30 mg/kg body weight for 21 days. For another experiment, the mice were castrated 33 days after implantation of the cancer cell for observing the effect of hormone depletion on the prostate cancer growth. Furthermore, Compound 8 of the present invention was administered orally twice daily in a dose of 30 mg/kg body weight for 21 days to the castrated mice. After the completion of the dosing, the diameters of tumor were measured. The tumor volume was calculated by the following formula: volume of tumor=longest diameter×shortest diameter×shortest diameter×1/2. The growth rate of tumors was obtained as the proportion to the volume of tumor in the control animals in which only the gum arabic solution was administered. The body weights of mice administered with Compound 8 of the present invention were measured during the experiment to observe no decrease.

HER2, sequence (P04626 23-1255): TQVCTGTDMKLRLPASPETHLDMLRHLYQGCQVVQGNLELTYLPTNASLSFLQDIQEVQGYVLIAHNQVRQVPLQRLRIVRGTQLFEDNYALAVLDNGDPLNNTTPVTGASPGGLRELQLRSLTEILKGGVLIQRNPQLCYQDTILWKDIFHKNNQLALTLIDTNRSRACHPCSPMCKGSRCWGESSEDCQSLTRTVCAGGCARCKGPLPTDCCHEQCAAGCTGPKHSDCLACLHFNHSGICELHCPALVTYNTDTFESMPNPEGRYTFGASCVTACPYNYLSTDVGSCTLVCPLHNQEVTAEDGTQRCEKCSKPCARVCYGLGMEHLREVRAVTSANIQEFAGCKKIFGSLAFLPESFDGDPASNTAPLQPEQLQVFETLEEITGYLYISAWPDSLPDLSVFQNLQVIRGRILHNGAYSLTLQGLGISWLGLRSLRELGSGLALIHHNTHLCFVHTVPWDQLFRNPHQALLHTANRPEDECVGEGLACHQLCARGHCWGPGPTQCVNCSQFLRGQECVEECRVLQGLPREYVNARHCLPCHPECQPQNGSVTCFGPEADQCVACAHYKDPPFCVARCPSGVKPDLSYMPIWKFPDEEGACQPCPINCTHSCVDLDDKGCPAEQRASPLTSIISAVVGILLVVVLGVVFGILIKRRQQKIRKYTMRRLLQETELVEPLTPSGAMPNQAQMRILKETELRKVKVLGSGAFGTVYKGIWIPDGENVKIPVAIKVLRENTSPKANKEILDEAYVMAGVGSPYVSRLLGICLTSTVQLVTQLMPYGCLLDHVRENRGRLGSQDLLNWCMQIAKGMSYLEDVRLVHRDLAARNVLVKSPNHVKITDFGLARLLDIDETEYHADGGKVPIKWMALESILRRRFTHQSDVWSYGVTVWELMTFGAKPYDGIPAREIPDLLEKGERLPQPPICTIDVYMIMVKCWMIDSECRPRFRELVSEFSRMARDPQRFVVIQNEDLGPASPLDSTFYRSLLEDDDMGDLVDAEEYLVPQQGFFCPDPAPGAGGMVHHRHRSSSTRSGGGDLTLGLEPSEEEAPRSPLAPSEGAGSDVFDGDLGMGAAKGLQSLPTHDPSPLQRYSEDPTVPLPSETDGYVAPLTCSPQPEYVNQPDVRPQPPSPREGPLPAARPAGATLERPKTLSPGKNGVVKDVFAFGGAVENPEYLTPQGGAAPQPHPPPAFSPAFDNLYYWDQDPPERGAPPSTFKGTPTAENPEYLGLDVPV

C(=C\c1nc(COc2ccc(CCCn3ccnc3)cc2)co1)/c1ccccc1 [Compound 8, 4-[4-[3-(1-imidazolyl)propyl]phenoxymethyl]-2-[(E)-2-phenylethenyl]oxazole]
IC50 (MDA-MB-453): 250 nM | Tumor growth rate (%) ([1]; 60 mg/kg/day, 30 mg/kg twice daily for 10 days): 71% | Tumor growth rate (%) ([1]; 90 mg/kg/day, 2 cycles of 45 mg/kg twice daily 3 days and 3 days off): 46% | Inhibition of implanted tumor growth ([1]; MDA-MB-453, athymic nude mice): inhibited dose-dependently the growth of human breast cancer | activity at 0.4 µM (HER2; T47D, 0.4 μM, heregulin control = 100%, read-out: Phosphorylation of the tyrosine residue (%)): 62% | activity at 1.6 µM (HER2; T47D, 1.6 μM, heregulin control = 100%, read-out: Phosphorylation of the tyrosine residue (%)): 52% | activity at 6.3 µM (HER2; T47D, 6.3 μM, heregulin control = 100%, read-out: Phosphorylation of the tyrosine residue (%)): 33% | activity at 25 µM (HER2; T47D, 25 μM, heregulin control = 100%, read-out: Phosphorylation of the tyrosine residue (%)): 20% | Inhibition of receptor tyrosine phosphorylation (HER2; heregulin): inhibit dose-dependently the phosphorylation reaction of the tyrosine residue in the receptor protein | Tumor growth rate (%) ([2]; castrated group (castrated without compound: 69)): 55% | Tumor growth rate (%) ([2]; non-castrated, tumor volume vs control): 80% | Inhibition of implanted tumor growth ([2]; LNCaP, athymic nude mice): inhibiting tumor growth of hormone dependent prostate cancer LNCaP | Effect of castration on tumor growth inhibiting effect ([2]; LNCaP, castrated athymic nude mice): further enhanced when the hormone levels were reduced by castration
